# Results taken from article PMC7589200, “Identification of Putative Non-Substrate-Based XT-I Inhibitors by Natural Product Library Screening” (Biomolecules, 2020).
# Where a name gives a salt, the structure may show the parent alone.
# Target: T1, recombinant human XT-I (Homo sapiens, UniProt Q86Y38)
# T1 sequence (Q86Y38 252-959 limits assumed): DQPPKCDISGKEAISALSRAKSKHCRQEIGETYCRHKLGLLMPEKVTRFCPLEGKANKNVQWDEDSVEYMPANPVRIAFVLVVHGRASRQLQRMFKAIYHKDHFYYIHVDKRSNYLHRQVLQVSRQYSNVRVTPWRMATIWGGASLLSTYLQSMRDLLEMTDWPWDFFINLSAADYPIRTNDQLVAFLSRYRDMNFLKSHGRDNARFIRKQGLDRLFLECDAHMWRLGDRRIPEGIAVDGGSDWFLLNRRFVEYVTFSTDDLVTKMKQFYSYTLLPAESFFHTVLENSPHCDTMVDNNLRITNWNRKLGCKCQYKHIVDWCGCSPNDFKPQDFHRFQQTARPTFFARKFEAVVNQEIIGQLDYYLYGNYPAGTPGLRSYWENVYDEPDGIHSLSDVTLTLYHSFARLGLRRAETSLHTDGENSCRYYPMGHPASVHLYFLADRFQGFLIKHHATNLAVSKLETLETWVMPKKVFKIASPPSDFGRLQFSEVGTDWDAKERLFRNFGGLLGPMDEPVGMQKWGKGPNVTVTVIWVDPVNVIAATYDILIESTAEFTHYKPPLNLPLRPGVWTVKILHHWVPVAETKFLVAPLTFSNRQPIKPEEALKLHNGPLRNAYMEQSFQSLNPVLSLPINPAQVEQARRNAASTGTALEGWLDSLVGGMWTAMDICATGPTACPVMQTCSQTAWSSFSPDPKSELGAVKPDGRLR
# Experiment: NP library inhibitor screening, UPLC/ESI-MS/MS XT-I assay
# Format: biochemical
# Conditions: not given
row,Compound,XT-I Activity [%]
1,"COc1cc(CNC(=O)CCCC/C=C/C(C)C)ccc1O [Compound 94, Capsaicin (Vanilloid)]",135%

# Same assay, conditions: Table 2; 50 μM inhibitor; relative to control (DMSO = 100%); technical duplicates
row,Compound,XT-I Activity [%]
1,Oxytetracycline (Terramycin) [Compound 74],17%

# Same assay, conditions: Table S1; 50 μM inhibitor; relative to negative control containing DMSO; technical duplicates
Compound,remaining activity at 50 µM,XT-I Activity [%]
"N[C@@H](C(=O)N[C@@H]1C(=O)N2C(C(=O)O)=C(Cl)CS[C@H]12)c1ccccc1 [Compound 81, Cefaclor]",71%,
"COc1ccc2[nH]cc(CCNC(C)=O)c2c1 [Compound 56, Melatonin]",99%,
"NC(=O)N/N=C/c1ccc([N+](=O)[O-])o1 [Compound 50, Nitrofural]",104%,
"C[C@@H]1[C@H](O)[C@@H](C)/C=C/C=C/CC/C=C/C=C/C=C/C=C/[C@H](O[C@H]2O[C@@H](C)[C@H](O)[C@@H](N)[C@H]2O)C[C@@H]2O[C@](O)(C[C@@H](O)[C@H](O)CC[C@@H](O)C[C@@H](O)C[C@@H](O)CC(=O)O[C@H]1C)C[C@H](O)[C@H]2C(=O)O [Compound 44, Nystatin (Fungicidin)]",,52%
Ginkgolide B [Compound 69],,100%
"Cl.Nc1ncnc2nc[nH]c12 [Compound 93, Adenine HCl]",,146%
Bleomycin sulfate [Compound 96],,149%
"NC(=O)c1cccnc1 [Compound 54, Nicotinamide (Vitamin B3)]",,116%
"C[C@H](CCC(=O)O)[C@H]1CC[C@H]2[C@@H]3[C@H](O)C[C@@H]4C[C@H](O)CC[C@]4(C)[C@H]3CC[C@]12C [Compound 75, Chenodeoxycholic Acid]",113%,
"CC1=C(/C=C/C(C)=C/C=C/C(C)=C/C(=O)O)C(C)(C)CCC1 [Compound 72, Tretinoin]",84%,
"C[C@@H]1CC[C@H]2[C@@H](C)C(=O)O[C@@H]3O[C@@]4(C)CC[C@@H]1[C@]32OO4 [Compound 57, Artemisinin]",93%,
"OC[C@H]1O[C@@H](O[C@@H]2[C@@H](CO)OC(O)(CO)[C@H]2O)[C@H](O)[C@@H](O)[C@H]1O (mixture of isomers) [Compound 16, Lactulose]",122%,
"CC(=O)O[C@H]1C(=O)[C@@]2(C)[C@H]([C@H](OC(=O)c3ccccc3)[C@]3(O)C[C@H](OC(=O)[C@H](O)[C@@H](NC(=O)c4ccccc4)c4ccccc4)C(C)=C1C3(C)C)[C@]1(OC(C)=O)CO[C@@H]1C[C@@H]2O [Compound 34, Paclitaxel]",79%,
"CN(N=O)C(=O)N[C@H]1C(O)O[C@H](CO)[C@@H](O)[C@@H]1O (mixture of isomers) [Compound 3, Streptozotocin (STZ)]",,101%
"COc1cc(NS(=O)(=O)c2ccc(N)cc2)nc(OC)n1 [Compound 91, Sulphadimethoxine]",,132%
"C[C@H]1[C@H](NC(=O)/C(=N\OC(C)(C)C(=O)O)c2csc(N)n2)C(=O)N1S(=O)(=O)O [Compound 5, Aztreonam]",94%,
"Cc1noc(NS(=O)(=O)c2ccc(N)cc2)c1C [Compound 33, Sulfisoxazole]",95%,
"Clc1ccc(COC(Cn2ccnc2)c2ccc(Cl)cc2Cl)c(Cl)c1 (stereo not drawn) [Compound 88, Miconazole Nitrate]",149%,

Compound,remaining activity at 50 µM,XT-I Activity [%]
"Nc1nc2c(ncn2COCCO)c(=O)[nH]1 [Compound 42, Aciclovir]",71%,
"C=CC1=C(C(=O)O)N2C(=O)[C@@H](NC(=O)/C(=N\O)c3csc(N)n3)[C@H]2SC1 [Compound 49, Cefdinir]",72%,
"C[C@]12CCC(=O)C=C1CC[C@@H]1[C@@H]2[C@@H](O)C[C@@]2(C)[C@H]1CC[C@]2(O)C(=O)CO [Compound 62, Hydrocortisone]",122%,
"COc1c(N2CCNC(C)C2)c(F)cc2c(=O)c(C(=O)O)cn(C3CC3)c12 (stereo not drawn) [Compound 47, Gatifloxacin]",98%,
"Nc1[nH]c(=O)ncc1F [Compound 7, Flucytosine]",93%,
"COc1cccc2c1C(=O)c1c(O)c3c(c(O)c1C2=O)C[C@@](O)(C(=O)CO)C[C@@H]3O[C@H]1C[C@H](N)[C@H](O)[C@H](C)O1.Cl [Compound 67, Doxorubicin (Adriamycin) HCl]",,113%
"C[C@H]1O[C@H](O[C@H]2[C@H](O)[C@@H](O)[C@@H](O[C@H]3[C@H](O)[C@@H](O)C(O)O[C@@H]3CO)O[C@@H]2CO)[C@H](O)[C@@H](O)[C@@H]1N[C@H]1C=C(CO)[C@@H](O)[C@H](O)[C@H]1O (stereo partly drawn) [Compound 46, Acarbose]",92%,
"CC1=C(/C=C/C(C)=C/C=C/C(C)=C\C(=O)O)C(C)(C)CCC1 [Compound 15, Isotretinoin]",86%,
"C[C@]12CC[C@@H]3c4ccc(O)cc4CC[C@H]3[C@@H]1CCC2=O [Compound 83, Estrone]",120%,
Oxytetracycline (Terramycin) [Compound 74],,17%
"CO[C@H]1/C=C/O[C@@]2(C)Oc3c(C)c(O)c4c(c3C2=O)C2=NC3(CCN(CC(C)C)CC3)NC2=C(NC(=O)/C(C)=C\C=C\[C@H](C)[C@H](O)[C@@H](C)[C@@H](O)[C@@H](C)[C@H](OC(C)=O)[C@@H]1C)C4=O [Compound 8, Rifabutin]",112%,
"Clc1ccc(C(Cn2ccnc2)OCc2ccsc2Cl)c(Cl)c1 (stereo not drawn) [Compound 87, Tioconazole]",136%,
"CC(=O)[C@H]1CC[C@H]2[C@@H]3CC=C4C[C@@H](O)CC[C@]4(C)[C@H]3CC[C@]12C [Compound 11, Pregnenolone]",,95%
"O=[N+]([O-])c1cn2c(n1)OC[C@@H](OCc1ccc(OC(F)(F)F)cc1)C2 [Compound 45, PA-824]",75%,
Vitamin B12 [Compound 65],,94%
"O=c1c(-c2ccc(O)cc2)coc2cc(O)ccc12 [Compound 10, Daidzein]",115%,
"C[C@@H](c1ncncc1F)[C@](O)(Cn1cncn1)c1ccc(F)cc1F [Compound 70, Voriconazole]",94%,

# Now from value to compound, other results behind:
remaining activity at 50 µM,Compound,XT-I Activity [%]
70%,"CCC(C)(C)c1ccc(CC(C)CN2C[C@@H](C)O[C@@H](C)C2)cc1 (stereo partly drawn) [Compound 29, Amorolfine HCl]",
126%,"COc1cnc(NS(=O)(=O)c2ccc(N)cc2)nc1 [Compound 82, Sulfameter]",
138%,"CC1(C)[C@H](C(=O)O)N2C(=O)C[C@H]2S1(=O)=O [Compound 90, Sulbactam]",
86%,"CCCCCCCCCC(=O)N[C@@H](Cc1c[nH]c2ccccc12)C(=O)N[C@H](CC(N)=O)C(=O)N[C@@H](CC(=O)O)C(=O)N[C@@H]1C(=O)NCC(=O)N[C@@H](CCCN)C(=O)N[C@@H](CC(=O)O)C(=O)N[C@H](C)C(=O)N[C@@H](CC(=O)O)C(=O)NCC(=O)N[C@H](CO)C(=O)N[C@@H]([C@H](C)CC(=O)O)C(=O)N[C@@H](CC(=O)c2ccccc2N)C(=O)O[C@@H]1C [Compound 80, Daptomycin]",
111%,"C[C@H]1COc2c(N3CCN(C)CC3)c(F)cc3c(=O)c(C(=O)O)cn1c23 [Compound 55, Levofloxacin]",
77%,"CO[C@H]1/C=C/O[C@@]2(C)Oc3c(C)c(O)c4c(O)c(c(/C=N/N5CCN(C)CC5)c(O)c4c3C2=O)NC(=O)/C(C)=C\C=C\[C@H](C)[C@H](O)[C@@H](C)[C@@H](O)[C@@H](C)[C@H](OC(C)=O)[C@@H]1C [Compound 41, Rifampin]",
103%,"Nc1ncnc2c1ncn2[C@@H]1O[C@H](CO)[C@@H](O)[C@H]1O [Compound 61, Adenosine]",
83%,"CO[C@H]1/C=C/O[C@@]2(C)Oc3c(C)c(O)c4c(O)c(c5c(nc6cc(C)ccn65)c4c3C2=O)NC(=O)/C(C)=C\C=C\[C@H](C)[C@H](O)[C@@H](C)[C@@H](O)[C@@H](C)[C@H](OC(C)=O)[C@@H]1C [Compound 20, Rifaximin]",
95%,"C[C@@H]1C/C=C/C=C/C=C/C=C/[C@H](O[C@@H]2O[C@H](C)[C@@H](O)[C@H](N)[C@@H]2O)C[C@@H]2O[C@](O)(C[C@@H](O)C[C@H]3O[C@@H]3/C=C/C(=O)O1)C[C@H](O)[C@H]2C(=O)O [Compound 27, Natamycin]",
70%,"CO[C@H]1C[C@@H]2CC[C@@H](C)[C@@](O)(O2)C(=O)C(=O)N2CCCC[C@H]2C(=O)O[C@H]([C@H](C)C[C@@H]2CC[C@@H](O)[C@H](OC)C2)CC(=O)[C@H](C)/C=C(\C)[C@@H](O)[C@@H](OC)C(=O)[C@H](C)C[C@H](C)/C=C/C=C/C=C/1C [Compound 1, Rapamycin (Sirolimus)]",
75%,"OC(Cn1cncn1)(Cn1cncn1)c1ccc(F)cc1F [Compound 36, Fluconazole]",
87%,"O=C(N[C@H](CO)[C@H](O)c1ccc([N+](=O)[O-])cc1)C(Cl)Cl [Compound 40, Chloramphenicol]",
121%,"C=C1C(=O)O[C@@H]2/C=C(\C)CC/C=C(\C)CC[C@@H]12 [Compound 14, Costunolide]",
150%,"C[C@@H]1C(=O)O[C@H]2C[C@@]34[C@H]5C[C@@H](C(C)(C)C)[C@]36[C@@H](OC(=O)[C@@H]6O)O[C@@]4(C(=O)O5)[C@]21O [Compound 95, Ginkgolide A]",
